Source: PMC5871718 (Cell, 2018)

Tests used:
BRD3 = target: T1, BRD3 (Homo sapiens, UniProt Q15059); test: 2D thermal proteome profiling (TMT mass spectrometry); assay type: cell-based; settings: intact THP-1 cells, […] min, […] °C; stabilization
T1 construct: endogenous full-length protein in THP-1 cells or lysate, identified by mass spectrometry

NUDT1 = target: T2, NUDT1 (Homo sapiens, UniProt P36639); test: as above; assay type: cell-based; settings: intact THP-1 cells, […] min, […] °C; stabilization
T2 construct: endogenous protein in THP-1 cells, identified by mass spectrometry

FYTTD1 [1] = target: T3, FYTTD1 (Homo sapiens, UniProt Q96QD9); test: as above; assay type: cell-based; parameters: endogenous protein in THP-1 cells, identified by mass spectrometry; settings: intact THP-1 cells, […] min, […] °C; destabilization; text value approximate
T3 sequence (Q96QD9 1-318): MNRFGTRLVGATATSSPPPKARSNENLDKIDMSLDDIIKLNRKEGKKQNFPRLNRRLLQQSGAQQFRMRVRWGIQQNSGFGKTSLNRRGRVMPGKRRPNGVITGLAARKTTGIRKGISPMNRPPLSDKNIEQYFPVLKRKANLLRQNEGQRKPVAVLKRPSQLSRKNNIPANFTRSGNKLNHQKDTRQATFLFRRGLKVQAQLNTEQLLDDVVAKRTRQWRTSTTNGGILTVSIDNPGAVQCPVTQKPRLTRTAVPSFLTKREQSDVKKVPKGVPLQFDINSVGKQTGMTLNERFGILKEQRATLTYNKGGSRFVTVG
Description: 2D thermal proteome profiling (TMT mass spectrometry) on FYTTD1 | JQ1 further caused dose-dependent destabilization of FYTTD1

FYTTD1 [2] = target: T3, FYTTD1; test: thermal shift of spiked recombinant protein, mass spectrometry read-out; assay type: binding; parameters: commercial recombinant protein (Abcam ab164533); settings: […] JQ1, […] protein in background of recombinant protein domains, […] HEPES pH […] NaCl, […] glycerol, […] Tween20; destabilization
SOAT1 = target: T4, SOAT1 (Homo sapiens, UniProt P35610); test: 2D thermal proteome profiling (TMT mass spectrometry); assay type: cell-based; settings: intact THP-1 cells, […] min, […] °C; stabilization; text value approximate
T4 construct: endogenous full-length protein in THP-1 cells, identified by mass spectrometry
T4 sequence (P35610 1-550): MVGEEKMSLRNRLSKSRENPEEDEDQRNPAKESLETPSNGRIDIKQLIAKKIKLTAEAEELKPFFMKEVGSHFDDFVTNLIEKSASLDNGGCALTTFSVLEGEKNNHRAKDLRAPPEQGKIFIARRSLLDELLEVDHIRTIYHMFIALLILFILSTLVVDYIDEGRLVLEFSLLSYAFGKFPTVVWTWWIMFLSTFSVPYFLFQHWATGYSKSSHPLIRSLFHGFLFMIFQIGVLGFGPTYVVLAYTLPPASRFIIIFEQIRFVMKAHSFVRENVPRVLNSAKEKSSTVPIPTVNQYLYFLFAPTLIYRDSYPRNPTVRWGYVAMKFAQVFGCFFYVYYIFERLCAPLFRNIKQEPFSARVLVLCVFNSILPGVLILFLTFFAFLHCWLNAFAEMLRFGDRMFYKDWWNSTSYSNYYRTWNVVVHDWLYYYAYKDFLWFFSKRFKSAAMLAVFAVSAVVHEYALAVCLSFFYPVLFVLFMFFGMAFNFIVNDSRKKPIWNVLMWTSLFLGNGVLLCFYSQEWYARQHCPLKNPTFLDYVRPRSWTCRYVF
Description: 2D thermal proteome profiling (TMT mass spectrometry) on SOAT1 | stabilized SOAT1 and several members of the sterol biosynthesis pathway

T1 sequence (Q15059 2-726): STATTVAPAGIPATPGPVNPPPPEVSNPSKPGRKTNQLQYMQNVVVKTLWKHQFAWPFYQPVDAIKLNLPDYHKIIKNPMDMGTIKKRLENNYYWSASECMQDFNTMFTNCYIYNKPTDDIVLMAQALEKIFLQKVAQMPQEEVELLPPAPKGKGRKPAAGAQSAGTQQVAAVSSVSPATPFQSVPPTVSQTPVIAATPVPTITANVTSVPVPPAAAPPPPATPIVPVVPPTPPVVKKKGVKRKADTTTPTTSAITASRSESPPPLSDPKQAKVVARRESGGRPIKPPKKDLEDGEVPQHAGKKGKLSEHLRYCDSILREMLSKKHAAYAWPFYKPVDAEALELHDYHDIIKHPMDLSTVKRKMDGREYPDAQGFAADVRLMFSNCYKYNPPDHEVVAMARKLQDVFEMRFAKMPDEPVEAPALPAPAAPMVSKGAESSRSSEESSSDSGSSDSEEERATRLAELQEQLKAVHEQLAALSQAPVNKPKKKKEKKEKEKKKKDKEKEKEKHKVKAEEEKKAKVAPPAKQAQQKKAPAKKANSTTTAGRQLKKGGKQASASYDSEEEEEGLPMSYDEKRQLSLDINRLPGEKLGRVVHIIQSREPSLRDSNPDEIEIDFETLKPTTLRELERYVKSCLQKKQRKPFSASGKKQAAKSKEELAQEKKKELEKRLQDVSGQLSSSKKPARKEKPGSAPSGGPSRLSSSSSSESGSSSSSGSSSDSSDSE

Compound	pEC50 (BRD3)	pEC50 (NUDT1)	EC50 (FYTTD1 [1]) [µM]	thermal shift (FYTTD1 [2])	EC50 (SOAT1) [µM]
COc1cc2c(cc1-c1c(C)noc1C)ncc1[nH]c(=O)n([C@H](C)c3ccccn3)c12 [I-BET151, 7-(3,5-dimethylisoxazol-4-yl)-8-methoxy-1-((R)-1-(pyridin-2-yl)ethyl)-1H-imidazo[4,5-c]quinolin-2(3H)-one]	5.9	5.3			
Cc1sc2c(c1C)C(c1ccc(Cl)cc1)=N[C@@H](CC(=O)OC(C)(C)C)c1nnc(C)n1-2 [JQ1]			~1	Thermal shift assays with recombinantly expressed FYTTD1 confirmed destabilization by JQ1 binding	~1
